Test results from patent US4698332A, “Expectorant” (Mect Corporation, priority 1984, dated 1987).

What was measured:
[1] = tested on: sputum of patients with chronic obstructive lung disease on frog palatine mucosa; assay: Mucociliary transport rate (MTR) of treated sputum on frog palatine mucosa (Example 5); design: species or system human sputum; frog palatine mucosa; conditions: for MTR after treatment: 2 mg
Method: (§1) Mucociliary transport rate (hereinunder referred to as MTR), i.e. the rate of transport of sputum by cilia, was measured using frog palatine mucosa. At the same time, physicochemical properties of the sputum before and after application of N-acetylneuraminic acid were compared.
(§2) The sputum used as the specimens was collected from 12 samples of patients suffering from chronic obstructive lung disease. N-acetylneuraminic acid was added to the specimen sputum in the ratios of 5 mg/ml sputum and 1 mg/ml sputum, and the specimen was left for 1 hour at 4° C. before measurement. Sputum which has not been treated by N-acetylneuraminic acid was used as a comparison example. A palatine mucosa obtained from a decapitated frog head was kept at constant temperature and humidity until the mucus liquid of the frog itself depleted. The specimen sputum was placed on the dried palatine mucosa, and the speed of movement of the sputum was observed through a noumenal microscope, thus measuring the MTR. The pH value of the sputum was measured by means of an electronic model HM-SAp pH meter, while the spinnability was measured by a device developed by Nagaoka and Yamanaka (disclosed in Transactions of 2nd Symposium of Cough and sputum, published July 20, 1979). The yield value was measured by Dulfano's double-tube method which is shown in the American Review of Respiratory Diseases, Vol. 104, p88, 1971.

[2] = Physicochemical properties (pH, yield value, spinnability) of treated sputum (Example 5); design: species or system human; conditions: for Yield value after treatment / pH of sputum after treatment / Spinnability after treatment: 2 mg
Method: as §1, §2

[3] = Acute toxicity test of N-acetylneuraminic acid, rats (Example 6); assay type: in vivo, SD rats; conditions: rat, in vivo
Method: (§3) A test was conducted to examine the acute toxicity of N-acetylneuraminic acid, using mice and rats, by means of intravenous injection, subcutaneous injection, per os inhalation.
(§4) SD rats: 6 weeks old (7 weeks old in case of inhalation)
(§5) 13 to 15% (W/V) dissolved in distilled water
(§6) By Litchfield-Wilcoxon method.
(§7) Inhalation was conducted by 1hr exposure to mist.

[4] = tested on: rats; assay: as above; assay type: in vivo, SD rats; conditions: inhalation, 1hr exposure to mist
Method: as §3, §4, §5, §6, §7

[5] = Acute toxicity test of N-acetylneuraminic acid, mice (Example 6); design: species or system ICR mice; conditions: mouse, in vivo
Method: as §3, §5, §6

[6] = tested on: palatine mucosa of frog; assay: Ciliary movement of frog palatine mucosa, particle transport method (Example 3, Tables 1-3); assay type: cell-based, bull frog
Method: Bull frogs (furnished by Saitama Test Animal) weighing 300 to 450 g were used regardless of sex.
N-acetylneuraminic acid and calcium salt of N-acetylneuraminic acid (provided by Kanto Ishiseiyaku Kabushiki Kaisha), as well as acetylcholine chloride (furnished by Sigma Kabushiki Kaisha) were used as the test substances.
Mucociliary transport was measured by the particle transport method. After decapitation of a frog, the surface of the palatine mucosa was separated with minimized damage and of fixed to a cork plate in a Petri dish which was then filled with 20 ml of Ringer's solution (trishydrochloric acid). The palatine mucosa was left in this state for 30 minutes before the commencement of measurement. For measurement, the Ringer's solution was removed and fine pieces of cork (capable of passing pharmaceutical sieve No. 5 but not capable of passing No. 6) were placed on the surface of the palatine mucosa, and the time (in seconds) required for the cork piece to move 1 cm was measured. The duration of movement, i.e., moving speed, was measured also in the state immediately after the removal of the Ringer's solution or pharmaceutical solution.

[7] = tested on: ciliated cells from human airway and frog palate; assay: Rotation of ciliated cell groups (Example 4); assay type: cell-based
Excerpt: Using ciliated cells from human airway and frog palate, rotation of cell groups due to ciliary beat was observed before and after application of N-acetylneuraminic acid and calcium salt of N-acetylneuraminic acid, in order to confirm the effect of these agents on the cilitated cells.
Human ciliated cells were collected from a normal trachea by means of a branchoscope, the ciliated cells being separated by rubbing the bronchus while observing through the branchoscope, while the collection of frog cilitated cells was conducted by rubbing the palatine mucosta, without being specially careful. […] The groups of cells were transferred to a cover slip and one drop of chicken plasma (prepared by Difco Company) and one drop of 50% chicken embryo extract were added to the cells, thus forming clots. The rotary motion in the clots was recorded by means of a video recorder and the number of rotations per minute was measured.

[8] = sample 5 (viscous sputum, 2 ml), before 18

With `CC(=O)N[C@H]1[C@H]([C@H](O)[C@H](O)CO)OC(O)(C(=O)O)C[C@@H]1O` (stereo partly shown) [N-acetylneuraminic acid] as the compound, how does the “Change of MTR of sputum” value ([1]; 1 mg/ml, samples with reduced spinnability) read?
Its value is “tendency to increased MTR”.

What about the MTR after treatment ([1]; sample 1 (viscous sputum, 2 ml), before 19) of the same compound?
The MTR after treatment was 38 mm/min.

And the MTR after treatment ([1]; sample 2 (viscous sputum, 2 ml), before 8)?
Its MTR after treatment is 19 mm/min.

And the MTR after treatment ([1]; sample 3 (pus sputum, 2 ml), before 20)?
Its MTR after treatment is 27 mm/min.

And the MTR after treatment ([1]; sample 4 (viscous sputum, 2 ml), before 25)?
The MTR after treatment was 29 mm/min.

And the MTR after treatment [1, 8]?
The MTR after treatment was 30 mm/min.

And the MTR after treatment ([1]; sample 6 (viscous sputum, 2 ml), before 15)?
Its MTR after treatment is 18 mm/min.

What about the “Change of spinnability of sputum” value ([2]; 1 mg/ml) of the same compound?
The value was “five samples showed a reduction, while one sample showed a slight increase”.

What about the “Change of yield value of sputum” value ([2]; 1 mg/ml) of the same compound?
The value was “Increase in the yield value was observed in three samples, while three samples showed a reduction. The yield value was unchanged in the remaining one sample”.

What about the “Change of sputum pH value” ([2]; 1 mg/ml, six samples) of the same compound?
The value was “five out of six samples treated with 1 mg/ml of N-acetylneuraminic acid showed a reduction in pH value (pH 7.31 0.40), while the remaining one sample showed a slight increase in pH value”.

What about the “Yield value after treatment” value ([2]; sample 1 (viscous sputum, 2 ml), before 3.7) of the same compound?
Its value is 11.5 mmH2 O.

What about the “pH of sputum after treatment” value ([2]; sample 1 (viscous sputum, 2 ml), before 7.72) of the same compound?
Its value is 7.35.

What about the Spinnability after treatment ([2]; sample 1 (viscous sputum, 2 ml), before 55) of the same compound?
The Spinnability after treatment was 19 mm.

What about the “Yield value after treatment” value ([2]; sample 2 (viscous sputum, 2 ml), before 0.1) of the same compound?
The value was 0.1 mmH2 O.

And the “pH of sputum after treatment” value ([2]; sample 2 (viscous sputum, 2 ml), before 7.52)?
The value was 7.62.

What about the Spinnability after treatment ([2]; sample 2 (viscous sputum, 2 ml), before 10) of the same compound?
The Spinnability after treatment was 3 mm.

And the “Yield value after treatment” value ([2]; sample 3 (pus sputum, 2 ml), before 2.7)?
The value was 0.7 mmH2 O.

And the Spinnability after treatment ([2]; sample 3 (pus sputum, 2 ml), before 5)?
The Spinnability after treatment was 2 mm.

And the “pH of sputum after treatment” value ([2]; sample 3 (pus sputum, 2 ml), before 7.98)?
Its value is 7.20.

What about the “Yield value after treatment” value ([2]; sample 4 (viscous sputum, 2 ml), before 1.9) of the same compound?
Its value is 3.2 mmH2 O.

What about the “pH of sputum after treatment” value ([2]; sample 4 (viscous sputum, 2 ml), before 6.98) of the same compound?
The value was 6.84.

And the Spinnability after treatment ([2]; sample 4 (viscous sputum, 2 ml), before 22)?
The Spinnability after treatment was 12 mm.

What about the “Yield value after treatment” value ([2]; sample 5 (viscous sputum, 2 ml), before 2.2) of the same compound?
Its value is 3.1 mmH2 O.

And the “pH of sputum after treatment” value ([2]; sample 5 (viscous sputum, 2 ml), before 7.24)?
The value was 6.94.

What about the Spinnability after treatment [2, 8] of the same compound?
The Spinnability after treatment was 16 mm.

What about the “pH of sputum after treatment” value ([2]; sample 6 (viscous sputum, 2 ml), before 8.16) of the same compound?
Its value is 7.88.

What about the “Yield value after treatment” value ([2]; sample 6 (viscous sputum, 2 ml), before 14.3) of the same compound?
The value was 7.5 mmH2 O.

And the Spinnability after treatment ([2]; sample 6 (viscous sputum, 2 ml), before 22)?
The Spinnability after treatment was 26 mm.

And the LD50 at 336 h ([3]; iv, rats F, 95% 1741-2030)?
The LD50 at 336 h was 1880 mg/kg.

And the LD50 at 336 h ([3]; iv, rats M, 95% 1748-2001)?
The LD50 at 336 h was 1870 mg/kg.

And the LD50 at 336 h ([3]; po, per os, rats F)?
The LD50 at 336 h was greater than 5000 mg/kg.

And the LD50 at 336 h ([3]; po, per os, rats M)?
The LD50 at 336 h was greater than 5000 mg/kg.

What about the LD50 at 336 h ([3]; sc, subcutaneous, rats F) of the same compound?
The LD50 at 336 h was greater than 5000 mg/kg.

What about the LD50 at 336 h ([3]; sc, subcutaneous, rats M) of the same compound?
The LD50 at 336 h was greater than 5000 mg/kg.

And the LD50 ([4]; rats F)?
Its LD50 is greater than 4.33 g/m^3.

What about the LD50 ([4]; rats M) of the same compound?
Its LD50 is greater than 4.33 g/m^3.

What about the LD50 at 336 h ([5]; iv, mice F, 95% 2137-2925) of the same compound?
Its LD50 at 336 h is 2500 mg/kg.

And the LD50 at 336 h ([5]; iv, mice M, 95% 1441-2008)?
Its LD50 at 336 h is 1700 mg/kg.

What about the LD50 at 336 h ([5]; po, per os, mice F) of the same compound?
The LD50 at 336 h was greater than 5000 mg/kg.

What about the LD50 at 336 h ([5]; po, per os, mice M) of the same compound?
The LD50 at 336 h was greater than 5000 mg/kg.

What about the LD50 at 336 h ([5]; sc, subcutaneous, mice F) of the same compound?
Its LD50 at 336 h is greater than 5000 mg/kg.

What about the LD50 at 336 h ([5]; sc, subcutaneous, mice M) of the same compound?
The LD50 at 336 h was greater than 5000 mg/kg.

And the Movement ([6]; 10^-4 g/ml, frog number 1)?
Its Movement is 17.3 s/cm.

What about the Movement ([6]; 10^-4 g/ml, frog number 2) of the same compound?
Its Movement is 22.0 s/cm.

What about the Movement ([6]; 10^-4 g/ml, frog number 3) of the same compound?
Its Movement is 20.7 s/cm.

And the Movement ([6]; 10^-4 g/ml, frog number 4)?
Its Movement is 22.0 s/cm.

What about the Movement ([6]; 10^-5 g/ml, frog number 1) of the same compound?
Its Movement is 21.3 s/cm.

What about the Acceleration ([6]; 10^-5 g/ml, frog number 1, control = 0) of the same compound?
The Acceleration was 33.4%.

What about the Movement ([6]; 10^-5 g/ml, frog number 2) of the same compound?
The Movement was 27.3 s/cm.

And the Acceleration ([6]; 10^-5 g/ml, frog number 2, control = 0)?
The Acceleration was 16.5%.

What about the Movement ([6]; 10^-5 g/ml, frog number 3) of the same compound?
The Movement was 28.7 s/cm.

What about the Acceleration ([6]; 10^-5 g/ml, frog number 3, control = 0) of the same compound?
Its Acceleration is 28.2%.

What about the Movement ([6]; 10^-5 g/ml, frog number 4) of the same compound?
Its Movement is 24.7 s/cm.

And the activation at 10 µg/mL ([6]; 10^-5 g/ml, frog number 4, control = 0, read-out: Acceleration)?
Its activation at 10 µg/mL is 31.4%.

What about the “Effect on ciliary movement of palatine mucosa” value ([6]; Tables 1 and 3) of the same compound?
Its value is “acceleration of the ciliary movement of palatine mucosa in a certain dose-dependency”.

And the “Ciliary movement promoting effect compared with acetylcholine” value ([6]; acetylcholine control at 10^-5 and 10^-4)?
Its value is “substantially the same ciliary movement promoting effect as the acetylcholine”.

And the “Increase of rotation speed (revolutions per minute) over Medium 199 at plateau” value ([7]; 10^-3 to 10^-2 mg/ml, 5, 10 and 15 minutes after application)?
Its value is “about 25%”.

And the “Effect on rotary motion of the cilium cells” value ([7]; 10^-4 to 10^-1 mg/ml)?
Its value is “gradually accelerated starting immediately after the application”.
